Patent publication US11773085B2 (Foghorn Therapeutics Inc., priority 2018, dated 2023)

The compounds below were run against BRD9 bromodomain (Homo sapiens (Human), UniProt Q9H8M2) (assay: BRD9 bromodomain TR-FRET competition binding assay). Settings: 3 nM Flag-BRD9, 3.75 nM biotinylated ligand, 90 minutes at room temperature.
Description: Cleaved His tag was removed by purification.
A mixture of biotinylated-ligand and SureLight™ Allophycocyanin-Streptavidin (APC-SA, PerkinElmer AD0201) in 50 mM HEPES (pH 7.4), 50 mM NaCl, 1 mM TCEP (pH 7), 0.01% (v/v) Tween-20, 0.01% (w/v) bovine serum albumin was added to a white 384-well PerkinElmer Proxiplate Plus plate. DMSO or 3-fold serially diluted compounds were then added to the Proxiplate followed by addition of Flag-BRD9. After a 10 minute incubation at room temperature, Eu-W1024 anti-FLAG (PerkinElmer, AD0273) was added.

| Compound | IC50 [nM] |
| --- | --- |
| Cn1cc(C(=O)NCc2ccccc2)c2ccncc2c1=O [Compound B3] | > 1000 |
| Cn1cc(C(=O)NCc2cccc3ccccc23)c2cn[nH]c2c1=O [Compound B4] | > 1000 |
| Cn1cc(C(=O)NCc2ccccc2)c2cn[nH]c2c1=O [Compound B5] | > 1000 |
| CCNC(=O)c1cn(C)c(=O)c2[nH]ncc12 [Compound B6] | > 1000 |
| CN(Cc1ccccc1)C(=O)c1cn(C)c(=O)c2[nH]ncc12 [Compound B7] | > 1000 |
| Cn1cc(C(=O)Nc2ccccc2)c2cn[nH]c2c1=O [Compound B8] | > 1000 |
| CCn1cc(C(=O)NCc2ccccc2)c2cn[nH]c2c1=O [Compound B9] | > 1000 |
| CCCn1cc(C(=O)NCc2ccccc2)c2cn[nH]c2c1=O [Compound B10] | > 1000 |
| CCN(C)C(=O)c1cn(C)c(=O)c2[nH]ncc12 [Compound B11] | > 1000 |
| CC(C)n1cc(C(=O)NCc2ccccc2)c2cn[nH]c2c1=O [Compound B12] | > 1000 |
| O=C(NCc1ccccc1)c1cn(CC2CC2)c(=O)c2[nH]ncc12 [Compound B13] | > 1000 |
| CNCc1ccc(-c2cn(C)c(=O)c3[nH]ccc23)cc1 [Compound B14] | 10 to 100 |
| C/C=C/Cn1cc(-c2ccc(CNC)c(C#N)c2)c2cc(C)[nH]c2c1=O [Compound B15] | 10 to 100 |
| CC(=O)c1cc(-c2cccc3nccn23)c2cc(N3CCOCC3)ccn12 [Compound B16, 1-(1-[imidazo[1,2-a]pyridin-5-yl]-7-(morpholin-4-yl)indolizin-3-yl)ethan-1-one] | 100 to 1000 |
| CC(=O)c1cc(-c2cccc3nccn23)c2cc(N3CCN(C)CC3)ccn12 [Compound B17, 1-(1-[imidazo[1,2-a]pyridin-5-yl]-7-(4-methylpiperazin-1-yl)indolizin-3-yl)ethan-1-one] | 100 to 1000 |
| CNCc1c(OC)cc(-c2cn(C3CC3)c(=O)c3cnccc23)cc1OC [Compound B18, 2-cyclopropyl-4-[3,5-dimethoxy-4-[(methylamino)methyl]phenyl]-2,7-naphthyridin-1-one] | 10 to 100 |
| CC(=O)c1cc(-c2cccc3nccn23)c2cc(N3CCNCC3)ccn12 [Compound B19, 1-(1-[imidazo[1,2-a]pyridin-5-yl]-7-(piperazin-1-yl)indolizin-3-yl)ethan-1-one] | 100 to 1000 |
| COc1cc(-c2cn(C)c(=O)c3cnccc23)cc(OC)c1CN1CC(N)C1 [Compound B20, 4-[4-[(3-aminoazetidin-1-yl)methyl]-3,5-dimethoxyphenyl]-2-methyl-1,2-dihydro-2,7-naphthyridin-1-one] | < 10 |
| COc1cc(-c2cn(C)c(=O)c3cnccc23)cc(OC)c1CN1CC(C(=O)O)C1 [Compound B21, 1-[[2,6-dimethoxy-4-(2-methyl-1-oxo-1,2-dihydro-2,7-naphthyridin-4-yl)phenyl]methyl]azetidine-3-carboxylic acid] | 10 to 100 |
| COc1cc(C#N)ccc1S(=O)(=O)Nc1ccc2c(c1)cc(C)c(=O)n2C [Compound B26] | > 1000 |
| CCOC(=O)Nc1cc(-c2cc(OC)c(CN(C)C)c(OC)c2)cn(C)c1=O [Compound B32] | 10 to 100 |
| CNC(=O)C1CN(Cc2c(OC)cc(-c3cn(C)c(=O)c4cnccc34)cc2OC)C1 [Compound B34, 1-[[2,6-dimethoxy-4-(2-methyl-1-oxo-1,2-dihydro-2,7-naphthyridin-4-yl)phenyl]methyl]-N-methylazetidine-3-carboxamide formic acid] | < 10 |
| CSc1cc(-c2cn(C)c(=O)c3cnccc23)ccc1CN(C)C [Compound B36, 4-[4-[(dimethylamino)methyl]-3-(methylsulfanyl)phenyl]-2-methyl-1,2-dihydro-2,7-naphthyridin-1-one] | 10 to 100 |
| CN(C)Cc1ccc(-c2cn(C)c(=O)c3cnccc23)cc1S(C)(=O)=O [Compound B37, 4-[4-[(dimethylamino)methyl]-3-methanesulfonylphenyl]-2-methyl-2,7-naphthyridin-1-one] | 100 to 1000 |
| COc1cc(-c2cn(C)c(=O)c3cnccc23)cc(OC)c1CN(C)S(=O)(=O)C1CC1 [Compound B39, N-[[2,6-dimethoxy-4-(2-methy-1-oxo-2,7-naphthyridin-4-yl)phenyl]methyl]-N-methyl cyclopropanesulfonamide] | < 10 |
| COc1cc(-c2cn(C)c(=O)c3cnccc23)cc(OC)c1CN1CC(CC(=O)O)C1 [Compound B41, 2-(1-[[2,6-dimethoxy-4-(2-methyl-1-oxo-1,2-dihydro-2,7-naphthyridin-4-yl)phenyl]methyl]azetidin-3-yl)acetic acid formic acid] | 10 to 100 |
| COc1cc(-c2cn(C)c(=O)c3cnccc23)cc(OC)c1CN1CC(C(=O)NCCCCCCCCNc2ccccc2)C1 [Compound B44, 1-[[2,6-dimethoxy-4-(2-methyl-1-oxo-1,2-dihydro-2,7-naphthyridin-4-yl)phenyl]methyl]-N-[8-(phenylamino)octyl]azetidine-3-carboxamide] | < 10 |
| COc1cc(-c2cn(C)c(=O)c3cnccc23)cc(OC)c1CN1CC[C@H]1C(=O)O [Compound B45, (2S)-1-[[2,6-dimethoxy-4-(2-methyl-1-oxo-2,7-naphthyridin-4-yl)phenyl]methyl] azetidine-2-carboxylic acid] | 10 to 100 |
| COc1cc(-c2cc(C)c(=O)n(C)c2)cc(OC)c1CN1CC(C(=O)O)C1 [Compound B48, 1-[[4-(1,5-dimethyl-6-oxopyridin-3-yl)-2,6-dimethoxyphenyl]methyl]azetidine-3-carboxylic acid] | 100 to 1000 |

Second part, the compound after the results:

| IC50 [nM] | Compound |
| --- | --- |
| 10 to 100 | COc1cc(-c2cn(C3CC3)c(=O)c3cnccc23)cc(OC)c1CN(C)C [Compound B22, 2-cyclopropyl-4-[4-[(dimethylamino)methyl]-3,5-dimethoxyphenyl]-2,7-naphthyridin-1-one] |
| 10 to 100 | COc1cc(-c2cc(N)c(=O)n(C)c2)cc(OC)c1CN(C)C [Compound B28, 3-amino-5-(4-((dimethylamino)methyl)-3,5-dimethoxyphenyl)-1-methylpyridin-2(1H)-one] |
| 100 to 1000 | COc1cc(-c2cc(NC(C)=O)c(=O)n(C)c2)cc(OC)c1CN(C)C [Compound B29, N-(5-[4-[(dimethylamino)methyl]-3,5-dimethoxyphenyl]-1-methyl-2-oxo-1,2-dihydropyridin-3-yl)acetamide] |
| 100 to 1000 | CCC(=O)Nc1cc(-c2cc(OC)c(CN(C)C)c(OC)c2)cn(C)c1=O [Compound B30, N-(5-[4-[(dimethylamino)methyl]-3,5-dimethoxyphenyl]-1-methyl-2-oxo-1,2-dihydropyridin-3-yl)propanamide] |
| > 1000 | CCC(=O)Nc1c(C)c(-c2cc(OC)c(CN(C)C)c(OC)c2)cn(C)c1=O [Compound B31, N-(5-[4-[(dimethylamino)methyl]-3,5-dimethoxyphenyl]-1,4-dimethyl-2-oxo-1,2-dihydropyridin-3-yl)propanamide] |
| 100 to 1000 | COc1cc(-c2cn(C)c(=O)c3nccnc23)cc(OC)c1CN(C)C [Compound B33, 8-[4-[(dimethylamino)methyl]-3,5-dimethoxyphenyl]-6-methylpyrido[3,4-b]pyrazin-5-one] |
| < 10 | COc1cc(-c2cn(C)c(=O)c3cnccc23)cc(OC)c1CN(C)S(C)(=O)=O [Compound B38, N-[[2,6-dimethoxy-4-(2-methyl-1-oxo-2,7-naphthyridin-4-yl)phenyl]methyl]-N-methylmethanesulfonamide] |
| < 10 | COc1cc(-c2cn(C)c(=O)c3cnccc23)cc(OC)c1CN(C)S(=O)(=O)CC(C)C [Compound B40, N-[[2,6-dimethoxy-4-(2-methyl-1-oxo-2,7-naphthyridin-4-yl)phenyl]methyl]-N,2-dimethylpropane-1-sulfonamide] |
| > 1000 | CCOC(=O)Nc1c(C)c(-c2cc(OC)c(CN(C)C)c(OC)c2)cn(C)c1=O [Compound B42, ethyl N-(5-[4-[(dimethylamino)methyl]-3,5-dimethoxyphenyl]-1,4-dimethyl-2-oxo-1,2-dihydropyridin-3-yl)carbamate] |
| < 10 | COc1cc(-c2cn(C)c(=O)c3[nH]ncc23)cc(OC)c1CN(C)C [Compound B43, 4-(4-((dimethyllamino)methyl)-3,5-dimethoxyphenyl)-6-methyl-1,6-dihydro-7H-pyrazolo[3,4-c]pyridin-7-one] |
| 10 to 100 | COc1cc(-c2cn(C)c(=O)c3[nH]cnc23)cc(OC)c1CN(C)C [Compound B47, 7-[4-[(dimethylamino)methyl]-3,5-dimethoxyphenyl]-5-methyl-3H-imidazo[4,5-c]pyridin-4-one formic acid] |
| 10 to 100 | COc1cc(-c2cn(C)c(=O)c3cnccc23)cc(OC)c1CN(C)S(=O)(=O)C(C)C [Compound B49, N-[[2,6-dimethoxy-4-(2-methyl-1-oxo-2,7-naphthyridin-4-yl)phenyl]methyl]-N-methyl propane-2-sulfonamide] |
| 10 to 100 | COc1cc(-c2cn(C)c(=O)c3cnncc23)cc(OC)c1CN(C)C [Compound B52, 8-[4-[(dimethylamino)methyl]-3,5-dimethoxyphenyl]-6-methyl-5H,6H-pyrido[3,4-d]pyridazin-5-one] |
| 10 to 100 | CNCc1c(OC)cc(-c2cn(C)c(=O)c3cnccc23)cc1OC [Compound B53, 4-[3,5-dimethoxy-4-[(methylamino)methyl]phenyl]-2-methyl-1,2-dihydro-2,7-naphthyridin-1-one] |
| < 10 | COc1cc(-c2cn(C)c(=O)c3cnccc23)cc(SC)c1CN(C)C [Compound B54, 4-[4-[(dimethylamino)methyl]-3-methoxy-5-(methylsulfanyl)phenyl]-2-methyl-1,2-dihydro-2,7-naphthyridin-1-one] |
